Measured values as given in US8309550B2, “Kinase inhibitors and their use as pharmaceutical agents” (Shanghai Genomics, Inc., priority 2011, dated 2012).
Like-named read-outs stand apart in the source and are kept apart here.

Legend:
CDK2/cyclinA = biological target: T1, CDK2/cyclinA (Homo sapiens, UniProt P24941); assay: Z'-LYTE kinase assay CDK2/cyclinA; type: biochemical
T1 construct: purchased Invitrogen PV3267
Method: (§1) Kinase assays. The compounds from the example above were tested for their ability to inhibit kinases. Recombinant human CDK2/cyclinA (PV3267), CDK1/cyclinB (PV3292), CDK5/p35 (PV3000) and Aurora A (PV3612) were purchased from Invitrogen (Carlsbad, Calif., USA). Kinase dosage and Z′-LYTE™ substrate for each kinase assay is as follows: CDK2/cyclinA-8 ng/reaction, Ser/Thr 12 Peptide; CDK1/cyclinB-0.8 ng/reaction, Ser/Thr 12 Peptide, CDK5/p35-0.8 ng/reaction, Ser/Thr 12 Peptide, and Aurora A-16 ng/reaction, Ser/Thr 1 Peptide. All enzymatic assays were performed using Z′-LYTE™ Kinase Assay Kits and were carried out following protocols provided by Invitrogen. To prepare stock solutions, compounds were dissolved at 10 mM in 100% DMSO and stored at 4° C. in amber glass vials. Enzyme reactions were initiated by adding recombinant enzyme and Z′-LYTE™ Ser/Thr peptide substrate and ATP mixture to 384-well plates containing diluted test compounds. Kinase and corresponding peptide substrate were incubated for 1 hr at room temperature in the presence of varying amounts of test compound with reaction buffer (20 μM ATP, […] [pH 7.5], 5 mM MgCl2, 0.5 mM EGTA, 0.005% Brij-35). Development buffer was added and incubated for another one hour at room temperature. Reactions were terminated by addition of stop buffer, and fluorescence emission intensity ratio 445 nm/520 nm (excited at 400 nm) was quantified by VICTOR-3 Multilabel Reader (Perkin-Elmer, Waltham, Mass., USA). Phosphorylation was calculated from the emission ratio. IC50 was determined using Sigmoid curve-fitting software Origin 6.0 (MicroCal, LLC, Northampton, Mass., USA).

Aurora B = Aurora B (Homo sapiens, UniProt Q96GD4); assay: Kinase assay Aurora B (Table I); type: biochemical
Aurora B, sequence (Q96GD4 whole entry): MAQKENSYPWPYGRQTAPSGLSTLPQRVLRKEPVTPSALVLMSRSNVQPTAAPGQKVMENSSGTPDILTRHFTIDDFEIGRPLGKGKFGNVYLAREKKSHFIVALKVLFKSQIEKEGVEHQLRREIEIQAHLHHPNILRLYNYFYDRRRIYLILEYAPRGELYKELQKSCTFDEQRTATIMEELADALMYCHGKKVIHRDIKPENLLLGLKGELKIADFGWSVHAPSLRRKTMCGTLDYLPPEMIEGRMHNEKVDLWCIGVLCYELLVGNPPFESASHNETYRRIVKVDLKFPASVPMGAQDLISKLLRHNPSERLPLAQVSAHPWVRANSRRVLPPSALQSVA
Method: [The source words this procedure for another target and reports this target under the same test.] as §1

CDK1/cyclinB = biological target: T2, CDK1/cyclinB (Homo sapiens, UniProt P06493); assay: Z'-LYTE kinase assay CDK1/cyclinB; type: biochemical
T2 construct: purchased Invitrogen PV3292
T2 sequence (P06493 whole entry): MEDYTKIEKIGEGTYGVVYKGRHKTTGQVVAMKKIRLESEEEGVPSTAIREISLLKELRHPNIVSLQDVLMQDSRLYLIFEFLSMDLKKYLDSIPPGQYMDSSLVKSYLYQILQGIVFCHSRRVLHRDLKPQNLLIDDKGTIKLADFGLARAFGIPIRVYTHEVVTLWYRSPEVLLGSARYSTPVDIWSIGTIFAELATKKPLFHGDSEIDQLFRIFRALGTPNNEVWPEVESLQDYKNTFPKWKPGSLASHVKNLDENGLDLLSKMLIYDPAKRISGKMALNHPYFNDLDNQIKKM
T2 sequence (P14635 whole entry partner): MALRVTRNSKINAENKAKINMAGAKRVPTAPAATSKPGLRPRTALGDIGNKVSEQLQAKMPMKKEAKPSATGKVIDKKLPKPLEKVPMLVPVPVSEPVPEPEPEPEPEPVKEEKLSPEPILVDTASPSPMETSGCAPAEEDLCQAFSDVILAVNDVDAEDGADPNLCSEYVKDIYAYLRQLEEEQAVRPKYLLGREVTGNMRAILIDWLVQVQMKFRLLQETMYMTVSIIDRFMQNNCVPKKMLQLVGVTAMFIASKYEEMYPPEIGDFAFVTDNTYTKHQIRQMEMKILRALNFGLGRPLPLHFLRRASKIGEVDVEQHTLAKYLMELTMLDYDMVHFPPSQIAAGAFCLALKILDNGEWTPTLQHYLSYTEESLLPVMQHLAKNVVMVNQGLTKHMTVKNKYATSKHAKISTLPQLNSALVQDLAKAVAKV
Method: as §1

CDK7 = CDK7 (Homo sapiens, UniProt P50613); assay: Kinase assay CDK7 (Table III); conditions: read-out: Target biochemical activity IC50 CDK7
CDK7, sequence (P50613 whole entry, species assumed): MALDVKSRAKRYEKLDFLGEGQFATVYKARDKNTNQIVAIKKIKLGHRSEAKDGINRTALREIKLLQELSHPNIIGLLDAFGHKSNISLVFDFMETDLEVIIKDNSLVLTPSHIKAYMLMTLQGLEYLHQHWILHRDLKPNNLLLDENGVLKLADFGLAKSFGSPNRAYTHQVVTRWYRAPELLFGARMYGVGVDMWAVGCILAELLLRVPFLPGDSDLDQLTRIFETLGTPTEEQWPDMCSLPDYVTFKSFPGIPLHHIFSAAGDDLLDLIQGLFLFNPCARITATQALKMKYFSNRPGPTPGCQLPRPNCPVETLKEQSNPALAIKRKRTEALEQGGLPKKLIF
CDK7, sequence (P51946 whole entry partner, species assumed): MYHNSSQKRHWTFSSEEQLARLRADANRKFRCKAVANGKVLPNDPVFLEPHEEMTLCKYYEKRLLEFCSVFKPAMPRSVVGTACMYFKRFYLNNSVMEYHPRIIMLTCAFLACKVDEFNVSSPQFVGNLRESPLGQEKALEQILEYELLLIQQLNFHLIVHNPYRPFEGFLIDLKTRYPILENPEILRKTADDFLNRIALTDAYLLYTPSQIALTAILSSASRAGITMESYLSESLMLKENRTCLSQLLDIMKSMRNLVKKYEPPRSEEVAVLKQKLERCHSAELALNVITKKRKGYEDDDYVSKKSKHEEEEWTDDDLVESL
CDK7, sequence (P51948 whole entry partner, species assumed): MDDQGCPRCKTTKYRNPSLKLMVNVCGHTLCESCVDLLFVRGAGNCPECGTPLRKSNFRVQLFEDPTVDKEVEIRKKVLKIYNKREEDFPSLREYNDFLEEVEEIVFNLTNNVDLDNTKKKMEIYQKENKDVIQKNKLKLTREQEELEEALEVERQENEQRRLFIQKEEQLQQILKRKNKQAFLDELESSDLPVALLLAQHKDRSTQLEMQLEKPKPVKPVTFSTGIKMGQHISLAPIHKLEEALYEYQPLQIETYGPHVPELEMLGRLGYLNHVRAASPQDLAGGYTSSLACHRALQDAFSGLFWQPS
Method: (§2) Kinase assays. The compounds were tested for their ability to inhibit kinases.

Aurora A = biological target: T3, Aurora A (Homo sapiens, UniProt O14965); assay: Z'-LYTE kinase assay Aurora A; type: biochemical
T3 construct: purchased Invitrogen PV3612
T3 sequence (O14965 1-403): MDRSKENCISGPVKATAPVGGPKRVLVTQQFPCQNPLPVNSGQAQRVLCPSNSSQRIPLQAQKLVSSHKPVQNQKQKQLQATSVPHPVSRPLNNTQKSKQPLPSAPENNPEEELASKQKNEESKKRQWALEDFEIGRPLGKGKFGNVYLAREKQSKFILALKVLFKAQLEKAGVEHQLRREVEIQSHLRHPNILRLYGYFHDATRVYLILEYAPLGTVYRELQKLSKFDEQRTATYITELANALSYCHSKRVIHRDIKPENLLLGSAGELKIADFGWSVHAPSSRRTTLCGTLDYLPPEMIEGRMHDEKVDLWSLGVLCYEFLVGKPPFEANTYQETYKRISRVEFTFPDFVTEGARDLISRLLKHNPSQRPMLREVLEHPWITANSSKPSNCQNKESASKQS
Method: as §1

CDK5/p35 = biological target: T4, CDK5/p35 (Homo sapiens, UniProt Q00535); assay: Z'-LYTE kinase assay CDK5/p35; type: biochemical
T4 construct: purchased Invitrogen PV3000
T4 sequence (Q00535 whole entry): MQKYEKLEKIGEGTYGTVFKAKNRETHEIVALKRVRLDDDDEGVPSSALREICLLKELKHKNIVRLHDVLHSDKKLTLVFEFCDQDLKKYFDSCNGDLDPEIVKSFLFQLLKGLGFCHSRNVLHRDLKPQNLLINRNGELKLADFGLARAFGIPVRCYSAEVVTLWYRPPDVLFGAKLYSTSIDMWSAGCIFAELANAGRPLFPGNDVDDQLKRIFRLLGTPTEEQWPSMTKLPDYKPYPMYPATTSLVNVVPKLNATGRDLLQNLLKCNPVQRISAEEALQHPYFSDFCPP
T4 sequence (Q15078 whole entry partner): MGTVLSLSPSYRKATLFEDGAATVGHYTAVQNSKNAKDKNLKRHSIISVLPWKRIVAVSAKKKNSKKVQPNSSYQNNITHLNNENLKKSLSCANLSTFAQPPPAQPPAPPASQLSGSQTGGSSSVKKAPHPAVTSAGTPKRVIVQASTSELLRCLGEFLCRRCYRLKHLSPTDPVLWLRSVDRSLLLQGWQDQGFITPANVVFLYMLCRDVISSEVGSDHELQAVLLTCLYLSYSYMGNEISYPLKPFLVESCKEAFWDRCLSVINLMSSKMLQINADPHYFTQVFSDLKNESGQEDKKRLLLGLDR
Method: as §1

TSSK1 = biological target: T5, TSSK1 (Homo sapiens, UniProt Q9BXA7); assay: Kinase assay TSSK1 (Table III); conditions: read-out: Target biochemical activity IC50 TSSK1
T5 sequence (Q9BXA7 1-367): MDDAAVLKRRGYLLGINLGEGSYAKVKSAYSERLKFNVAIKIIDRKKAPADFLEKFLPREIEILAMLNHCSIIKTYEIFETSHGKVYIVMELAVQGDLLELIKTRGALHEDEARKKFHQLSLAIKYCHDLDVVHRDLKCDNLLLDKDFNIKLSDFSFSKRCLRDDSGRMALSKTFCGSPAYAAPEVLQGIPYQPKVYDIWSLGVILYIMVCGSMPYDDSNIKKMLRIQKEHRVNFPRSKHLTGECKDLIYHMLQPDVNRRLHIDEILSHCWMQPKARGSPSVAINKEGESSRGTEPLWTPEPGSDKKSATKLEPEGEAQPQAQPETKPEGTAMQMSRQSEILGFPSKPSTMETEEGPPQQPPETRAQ
Method: as §2

CDK9 = CDK9 (Homo sapiens, UniProt P50750); assay: CDK9 inhibitory activity, kinase assays (Table III); conditions: read-out: Target biochemical activity IC50 CDK9
CDK9, sequence (P50750 whole entry, species assumed): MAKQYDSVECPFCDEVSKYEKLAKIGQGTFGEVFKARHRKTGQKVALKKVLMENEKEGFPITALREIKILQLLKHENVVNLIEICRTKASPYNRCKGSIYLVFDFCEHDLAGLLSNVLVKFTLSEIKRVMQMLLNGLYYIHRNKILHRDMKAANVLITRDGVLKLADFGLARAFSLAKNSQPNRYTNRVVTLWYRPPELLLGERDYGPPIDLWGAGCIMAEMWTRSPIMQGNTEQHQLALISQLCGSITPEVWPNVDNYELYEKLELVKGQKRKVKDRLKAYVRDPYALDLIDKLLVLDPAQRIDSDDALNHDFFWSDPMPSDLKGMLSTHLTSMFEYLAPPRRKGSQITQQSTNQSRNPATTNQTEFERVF
CDK9, sequence (O60563 whole entry partner, species assumed): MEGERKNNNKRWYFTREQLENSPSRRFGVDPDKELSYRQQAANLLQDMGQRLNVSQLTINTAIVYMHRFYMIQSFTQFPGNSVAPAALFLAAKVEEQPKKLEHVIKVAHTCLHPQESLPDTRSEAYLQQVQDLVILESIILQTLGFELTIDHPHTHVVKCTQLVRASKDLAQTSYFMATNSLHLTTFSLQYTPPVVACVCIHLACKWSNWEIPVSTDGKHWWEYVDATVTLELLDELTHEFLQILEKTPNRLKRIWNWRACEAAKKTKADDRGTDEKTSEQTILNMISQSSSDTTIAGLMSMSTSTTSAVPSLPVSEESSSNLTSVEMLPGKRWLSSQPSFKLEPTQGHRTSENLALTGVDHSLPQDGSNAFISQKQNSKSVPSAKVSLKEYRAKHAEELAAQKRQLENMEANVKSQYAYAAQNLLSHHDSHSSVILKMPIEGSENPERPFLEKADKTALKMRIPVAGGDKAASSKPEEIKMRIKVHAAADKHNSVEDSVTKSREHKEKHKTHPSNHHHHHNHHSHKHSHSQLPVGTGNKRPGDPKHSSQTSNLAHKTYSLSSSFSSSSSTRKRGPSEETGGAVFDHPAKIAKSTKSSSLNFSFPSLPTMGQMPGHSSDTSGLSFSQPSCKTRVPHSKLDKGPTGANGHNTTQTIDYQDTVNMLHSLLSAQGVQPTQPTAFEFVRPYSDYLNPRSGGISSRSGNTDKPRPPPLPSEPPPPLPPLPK
Method: as §2

SRC = SRC (Homo sapiens, UniProt P12931); assay: Kinase assay SRC (Table III); conditions: read-out: Target biochemical activity IC50 SRC
SRC, sequence (P12931 whole entry, species assumed): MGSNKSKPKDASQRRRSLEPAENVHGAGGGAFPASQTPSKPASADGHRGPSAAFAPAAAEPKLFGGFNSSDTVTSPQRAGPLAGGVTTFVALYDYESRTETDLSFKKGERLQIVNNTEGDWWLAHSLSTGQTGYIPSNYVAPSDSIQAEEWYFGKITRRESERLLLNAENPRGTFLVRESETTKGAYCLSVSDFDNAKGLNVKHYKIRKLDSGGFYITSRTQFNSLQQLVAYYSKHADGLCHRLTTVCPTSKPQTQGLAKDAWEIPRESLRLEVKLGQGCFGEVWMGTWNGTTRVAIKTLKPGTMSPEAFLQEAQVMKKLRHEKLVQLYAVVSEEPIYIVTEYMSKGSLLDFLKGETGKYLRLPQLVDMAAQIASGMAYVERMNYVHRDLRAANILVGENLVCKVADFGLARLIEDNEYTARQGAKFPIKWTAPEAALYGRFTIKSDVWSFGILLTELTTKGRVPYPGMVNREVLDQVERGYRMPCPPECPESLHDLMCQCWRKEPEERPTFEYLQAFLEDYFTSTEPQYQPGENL
Method: as §2

Molt-4-luc = assay: 72 h MTT cytotoxicity assay Molt-4-luc; type: cell-based; conditions: Homo sapiens
From the text: (§3) MIT cytotoxicity assay. The compounds of the invention were subjected to a standard cellular proliferation assay using human cell lines. HeLa cells (Human cervix adenocarcinoma cell line, ATCC NO, CCL-2); A549 cells (Human lung carcinoma cells line, ATCC NO, CCL-185); U2OS cells (Human osteosarcoma cell line, ATCC NO, HTB-96); Eca-109 cells (Human esophageal carcinoma cell line); HepG2 (Human hepatocellular liver carcinoma cell line, ATCC NO, HB-8065); K562 cells (Human chronic myelogenous leukemia cell line, ATCC NO, CCL-243); SK-MEL-28 (Human malignant melanoma cell line, ATCC NO, HTB-72); Molt-4 (Human acute lymphoblastic leukemia cell line, ATCC NO, CRL-1582); H460 (Human large cell lung cancer cell line, ATCC NO, HTB-177); MDA-MB-231 (Human breast adenocarcinoma cell line, ATCC NO, HTB-26); MCF7 (Human breast adenocarcinoma cell line, ATCC NO, HTB-22); ACHN (Human renal cell adenocarcinoma cell line, ATCC NO, CRL-1611); PC-3M (Human prostate adenocarcinoma cell line, ATCC NO CRL-1435); HL60 (Human acute promyelocytic leukemia cell line, ATCC NO, CCL-240); THP-1 (Human acute monocytic leukemia, ATCC NO, TIB-202); Jurkat (Human acute T cell leukemia cell line, ATCC NO, CRL-2063); HCT-116 (Human colorectal carcinoma cell line, ATCC NO, CCL-247); HT-29 (Human colorectal adenocarcinoma cell line, ATCC NO, HTB-38™); WI-38 (Human normal lung cell line, ATCC NO, CCL-75); MRC-5 (Human normal lung cell line, ATCC NO, CCL-171).
(§4) HepG2, MDA-MB-231, WI-38 and MRC-5 cells were obtained from Shanghai Institute of Cell Biology, Chinese Academy of Sciences (Shanghai 200031, China). A549, HeLa, K562, MCF7, ACHN, H460, U2OS, Eca-109, MCF7, HL60, THP-1, Jurkat, HCT-116, HT-29, PC-3M, SK-MEL-28, Molt-4, H460 and […] cells were purchased from ATCC (American Type Culture Collection, USA).
(§5) Standard 72 h MTT (thiazolye blue; 3-[4,5-dimethylthiazol-2-yl]-2,5-diphenyltetrazolium bromide) assays were performed. Briefly, the cell lines used in this study were recovered and cultured according to the conditions recommended. 4000 cells per well were seeded into 96-well plates according to doubling time and incubated overnight at 37° C. Compounds were prepared in DMSO and a ½ dilution series in 100 μl cell culture media, added to cells (in duplicates) with the final DMSO concentration of 0.025%, and incubated for 72 hrs at 37° C. MTT solution (5 mg/ml) was added at 10 μl per well and incubated in the dark at 37° C. for 4 hr. Culture medium and MTT solution was removed. MTT dye was solubilised with 100 μl per well of DMSO with agitation. Absorbance was read at 562 nm and data analyzed using Sigmoid curve-fitting software Origin 6.0 (MicroCal, LLC, USA) to determine IC50 value.

HL-60 = assay: 72 h MTT cell viability HL-60; type: cell-based; conditions: Homo sapiens
From the text: as §3, §4, §5

ACHN-luc = assay: 72 h MTT cell viability ACHN-luc; type: cell-based; conditions: Homo sapiens
From the text: as §3, §4, §5

U2OS cells = assay: 72 h MTT cytotoxicity assay U2OS; type: cell-based; conditions: Homo sapiens
From the text: as §3, §4, §5

MDA-MB-231-luc = assay: 72 h MTT cell viability MDA-MB-231-luc; type: cell-based; conditions: Homo sapiens
From the text: as §3, §4, §5

SK-MEL-28-luc = assay: 72 h MTT cytotoxicity assay SK-MEL-28-luc; type: cell-based; conditions: Homo sapiens
From the text: as §3, §4, §5

A549 cells = assay: 72 h MTT cytotoxicity assay A549; type: cell-based; conditions: Homo sapiens; A549, 72 hrs
From the text: as §3, §4, §5

HeLa cells = assay: 72 h MTT cytotoxicity assay HeLa; type: cell-based; conditions: Homo sapiens
From the text: as §3, §4, §5

CDK9T1 = CDK9T1 (Homo sapiens, UniProt P50750); assay: Kinase assay CDK9T1 (Table I); type: biochemical; conditions: read-out: Kinase inhibition, IC50 CDK9T1
CDK9T1, sequence (P50750 whole entry): as the sequence (P50750 whole entry, species assumed) above
CDK9T1, sequence (O60563 whole entry partner): as the sequence (O60563 whole entry partner, species assumed) above
Method: [The source words this procedure for another target and reports this target under the same test.] as §1

HepG2 = assay: 72 h MTT cytotoxicity assay HepG2; type: cell-based; conditions: Homo sapiens; HepG2, 72 hrs
From the text: as §3, §4, §5

Eca-109 cells = assay: 72 h MTT cytotoxicity assay Eca-109; type: cell-based; conditions: Homo sapiens; Eca-109, 72 hrs
From the text: as §3, §4, §5

K562 cells = assay: 72 h MTT cytotoxicity assay K562; type: cell-based; conditions: Homo sapiens; K562, 72 hrs
From the text: as §3, §4, §5

H460-luc = assay: 72 h MTT cytotoxicity assay H460-luc; type: cell-based; conditions: Homo sapiens, NCI-H460-Luc; H460-luc, 72 hrs; read-out: Cytotoxicity, MTT 72 hrs, IC50 H460-luc
From the text: as §3, §4, §5

PC-3M-luc = assay: 72 h MTT cell viability PC-3M-luc; type: cell-based; conditions: Homo sapiens
From the text: as §3, §4, §5

MCF7 = assay: 72 h MTT cytotoxicity assay MCF7; type: cell-based; conditions: Homo sapiens; MCF7, 72 hrs
From the text: as §3, §4, §5

THP-1 = assay: 72 h MTT cell viability THP-1; type: cell-based; conditions: Homo sapiens, THP-1; read-out: Cell Viability IC50 THP-1
From the text: as §3, §4, §5

WI-38 = assay: 72 h MTT cell viability WI-38 (normal lung); type: cell-based; conditions: Homo sapiens; WI-38, normal lung cell line
From the text: as §3, §4, §5

[1] = read-out: Kinase inhibition, IC50 CDK2A
[2] = read-out: Kinase inhibition, IC50 CDK1B
[3] = read-out: Kinase inhibition, IC50 Aurora A
[4] = read-out: Kinase inhibition, IC50 CDK5/p35

Row | IC50 (HL-60) [nM] | IC50 (ACHN-luc) [nM] | IC50 (MDA-MB-231-luc) [nM] | IC50 (CDK2/cyclinA; [1]) [nM] | IC50 (CDK9T1) [nM] | IC50 (CDK1/cyclinB; [2]) [nM] | IC50 (Aurora A; [3]) [nM] | IC50 (CDK5/p35; [4]) [nM] | IC50 (PC-3M-luc) [nM] | Compound | IC50 (Molt-4-luc) [nM] | IC50 (U2OS cells) [nM] | IC50 (SK-MEL-28-luc) [nM] | IC50 (A549 cells) [nM] | IC50 (HepG2) [nM] | IC50 (Eca-109 cells) [nM] | IC50 (H460-luc) [nM] | other results
1 | – | – | – | – | – | – | – | – | – | CCn1cc(-c2ccnc(Nc3ccc(O)cc3)n2)c2ccnc(Cl)c21 [SG49] | – | – | – | – | – | – | – | IC50 (CDK2/cyclinA; Table III, read-out: Target biochemical activity IC50 CDK2): 16 nM; IC50 (Aurora B; Table III, read-out: Target biochemical activity IC50 Aurora B): > 10000 nM; IC50 (CDK1/cyclinB; Table III, read-out: Target biochemical activity IC50 CDK1): 190 nM; IC50 (CDK7): > 10000 nM; IC50 (Aurora A; Table III, read-out: Target biochemical activity IC50 Aurora A): 2460 nM; IC50 (CDK5/p35; Table III, read-out: Target biochemical activity IC50 CDK5): 350 nM; IC50 (TSSK1): 1490 nM; IC50 (CDK9): 95 nM; IC50 (SRC): 4560 nM
2 | 1270 | 13700 | 2030 | 1670 | 57 | > 10000 | 620 | > 10000 | > 10000 | CCCn1cc(-c2ccnc(Nc3ccc(S(N)(=O)=O)cc3)n2)c2nc(Cl)cc(C)c21 [Compound 39, 4-(4-(5-Chloro-7-methyl-1-propyl-1H-pyrrolo[3,2-b]pyridin-3-yl)pyrimidin-2-ylamino)benzenesulfonamide] | 5250 | 1260 | 3410 | 420 | 100 | 3700 | 1030 | IC50 (HeLa cells): 3300 nM; IC50 (Aurora B; read-out: Kinase inhibition, IC50 Aurora B): 320 nM; IC50 (K562 cells): 4720 nM; IC50 (MCF7): > 10000 nM
3 | 430 | 510 | 440 | 3.8 | 24 | 180 | 1280 | 190 | 890 | CCn1cc(-c2ccnc(Nc3cccc(S(N)(=O)=O)c3)n2)c2ccnc(Cl)c21 [Compound 73, 3-(4-(7-Chloro-1-ethyl-1H-pyrrolo[2,3-c]pyridin-3-yl)pyrimidin-2-ylamino)benzenesulfonamide] | 430 | 410 | 490 | 370 | 180 | > 10000 | 315 | IC50 (THP-1): 2740 nM; IC50 (WI-38): > 10000 nM
